This is an account of results in US20230077362A1 (CORTEVA AGRISCIENCE LLC, priority 2019, published 2023).

In experiment [1] the test system is Beet Armyworm (Spodoptera exigua) ("BAW"), second instar larvae. The experiment can be described thus: Bioassay on beet armyworm (BAW), 128-well diet tray assay. Type of experiment: in vivo. The note with it: for pest or weed control at 50 µg/cm2: Spodoptera exigua, read-out: BAW rating; for BAW rating: Table ABC, species BAW, C = not tested, D = no activity noticed. Summed up: (§1)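 Each value represents average percent mortality from eight wells. Larvae were kept in clear-covered trays at 25° C. for five to seven days on a 14-hour light, 10-hour dark schedule before scoring.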

The test system of experiment [2] is Cabbage Looper (Trichoplusia ni) ("CL"), second instar larvae. The experiment can be described thus: Bioassay on cabbage looper (CL), 128-well diet tray assay. The note with it: for pest or weed control at 50 µg/cm2: Trichoplusia ni, read-out: CL rating; for CL rating: Table ABC, species CL, C = not tested, D = no activity noticed. Type of experiment: in vivo. Put shortly:
as §1

As to `CC(C)c1ccc(N(C)C)cc1N1C(=O)CS/C1=N\C(=O)Nc1ccc(-c2nc(-c3ccc(OC(F)(F)F)cc3)no2)cc1F` [Compound J435, (Z)-1-(3-(5-(dimethylamino)-2-isopropylphenyl)-4-oxothiazolidin-2-ylidene)-3-(2-fluoro-4-(3-(4-(trifluoromethoxy)phenyl)-1,2,4-oxadiazol-5-yl)phenyl)urea], the pest or weed control at 50 µg/cm2 in experiment [1] and in experiment [2] was 50 to 100% in each case.
With `Cc1ccc(COCC(F)(F)Cl)c(N2C(=O)CS/C2=N\C(=O)Nc2ccc(-c3ncn(-c4ccc(OC(F)(F)F)cc4)n3)cc2C)c1` [Compound J436], in experiment [1], the BAW rating entry is given as “A (50-100)”. The CL rating result in experiment [2] is given as “A (50-100)”.
In the case of `Cc1ccc(COCC(F)(F)Cl)c(N2C(=O)CS/C2=N\C(=O)Nc2ccc(-c3ncn(-c4ccc(OC(F)(F)F)cc4)n3)cc2F)c1` [Compound J437], in experiment [1], the BAW rating result is given as “A (50-100)”. In experiment [2], the CL rating result is “A (50-100)”.
With `Cc1ccc(N2C(=O)CS/C2=N\C(=O)Nc2ccc(-c3ncn(-c4ccc(OC(F)(F)F)cc4)n3)cc2F)c(COCC(F)(F)F)c1` [Compound J438], the BAW rating result in experiment [1] was “A (50-100)”. Moreover, the CL rating result in experiment [2] is listed as “A (50-100)”.
`Cc1ccc(Cc2cccc(C(F)(F)F)c2)c(N2C(=O)CS/C2=N\C(=O)Nc2ccc(-c3ncn(-c4ccc(OC(F)(F)F)cc4)n3)cc2C)c1` [Compound J440, (Z)-1-(3-(5-Methyl-2-(3-(trifluoromethyl)benzyl)phenyl)-4-oxothiazolidin-2-ylidene)-3-(2-methyl-4-(1-(4-(trifluoromethoxy)phenyl)-1H-1,2,4-triazol-3-yl)phenyl)urea]: the pest or weed control at 50 µg/cm2 in experiment [1] was in the range of 50 to 100%; in experiment [2], 0 to 50%.
`Cc1ccc(OCCC(F)(F)F)c(N2C(=O)CS/C2=N\C(=O)Nc2ccc(-n3cnc(-c4ccc(OC(F)(F)F)cc4)n3)cc2C)c1` [Compound J441, (Z)-1-(3-(5-Methyl-2-(3,3,3-trifluoropropoxy)phenyl)-4-oxothiazolidin-2-ylidene)-3-(2-methyl-4-(3-(4-(trifluoromethoxy)phenyl)-1H-1,2,4-triazol-1-yl)phenyl)urea]: the pest or weed control at 50 µg/cm2 in experiment [1] and in experiment [2] was 50 to 100% throughout.
On to `Cc1ccc(COCC(F)(F)F)c(N2C(=O)CS/C2=N\C(=O)Nc2ccc(-n3cnc(-c4ccc(OC(F)(F)F)cc4)n3)cc2C)c1` [Compound J442, (Z)-1-(3-(5-Methyl-2-((2,2,2-trifluoroethoxy)methyl)phenyl)-4-oxothiazolidin-2-ylidene)-3-(2-methyl-4-(3-(4-(trifluoromethoxy)phenyl)-1H-1,2,4-triazol-1-yl)phenyl)urea], for which the pest or weed control at 50 µg/cm2 in experiment [1] and in experiment [2] was 50 to 100% throughout.
Turning to `COC(c1ccc(C)cc1N1C(=O)CS/C1=N\C(=O)Nc1ccc(-n2cnc(-c3ccc(OC(F)(F)F)cc3)n2)cc1C)C(F)(F)F` (centres unmarked) [Compound J443, (Z)-1-(3-(5-Methyl-2-(2,2,2-trifluoro-1-methoxyethyl)phenyl)-4-oxothiazolidin-2-ylidene)-3-(2-methyl-4-(3-(4-(trifluoromethoxy)phenyl)-1H-1,2,4-triazol-1-yl)phenyl)urea], the pest or weed control at 50 µg/cm2 in experiment [1] and in experiment [2] was 50 to 100% in each case.
`COCc1ccc(N(C)C)cc1N1C(=O)CS/C1=N\C(=O)Nc1ccc(-n2cnc(-c3ccc(OC(F)(F)F)cc3)n2)cc1C` [Compound J444, (Z)-1-(3-(5-(Dimethylamino)-2-(methoxymethyl)phenyl)-4-oxothiazolidin-2-ylidene)-3-(2-methyl-4-(3-(4-(trifluoromethoxy)phenyl)-1H-1,2,4-triazol-1-yl)phenyl)urea]: the pest or weed control at 50 µg/cm2 in experiment [1] and in experiment [2] was 50 to 100% throughout.
In the case of `CCOCc1ccc(C)cc1N1C(=O)CS/C1=N\C(=O)Nc1ccc(-c2ncn(-c3ccc(S(F)(F)(F)(F)F)cc3)n2)cc1F` [Compound J445], the BAW rating result in experiment [1] is given as “A (50-100)”. In addition, in experiment [2], the CL rating result is on record as “A (50-100)”.
Consider `Cc1ccc(COCC(F)F)c(N2C(=O)CS/C2=N\C(=O)Nc2ccc(-c3ncn(-c4ccc(S(F)(F)(F)(F)F)cc4)n3)cc2F)c1` [Compound J446], for which the pest or weed control at 50 µg/cm2 in experiment [1] and in experiment [2] was 50 to 100% each time.
Take `Cc1ccc(OCCC(F)(F)F)c(N2C(=O)CS/C2=N\C(=O)Nc2ccc(-c3ncn(-c4ccc(S(F)(F)(F)(F)F)cc4)n3)cc2F)c1` [Compound J447]: the pest or weed control at 50 µg/cm2 in experiment [1] and in experiment [2] was 50 to 100% throughout.
Turning to `Cc1ccc(N2C(=O)CS/C2=N\C(=O)Nc2ccc(-c3ncn(-c4ccc(OC(F)(F)F)cc4)n3)cc2C)c(COCC(F)(F)F)c1` [Compound J448], in experiment [1], the BAW rating result is “A (50-100)”. Further, in experiment [2], the CL rating entry is “A (50-100)”.
Regarding `Cc1ccc(COCC(F)(F)Cl)c(N2C(=O)CS/C2=N\C(=O)Nc2ccc(-c3ncn(-c4ccc(S(F)(F)(F)(F)F)cc4)n3)cc2F)c1` [Compound J449], in experiment [1], the BAW rating result was “A (50-100)”. In experiment [2], the CL rating result is listed as “A (50-100)”.
For `CC(C)c1ccc(N(C)C)cc1N1C(=O)CS/C1=N\C(=O)Nc1ccc(-c2ncn(-c3ccc(S(F)(F)(F)(F)F)cc3)n2)cc1F` [Compound J450], in experiment [1], the BAW rating result is recorded as “A (50-100)”. Also, the CL rating entry in experiment [2] is given as “A (50-100)”.
As to `Cc1ccc(N2C(=O)CS/C2=N\C(=O)Nc2ccc(-c3ncn(-c4ccc(C(F)(F)F)cn4)n3)cc2F)c(COCC(F)(F)F)c1` [Compound J451], the BAW rating result in experiment [1] was “A (50-100)”. Moreover, in experiment [2], the CL rating entry is “A (50-100)”.
As for `Cc1ccc(COCC(Cl)(Cl)Cl)c(N2C(=O)CS/C2=N\C(=O)Nc2ccc(-c3ncn(-c4ccc(OC(F)(F)F)cc4)n3)cc2F)c1` [Compound J452], in experiment [1], the BAW rating entry is reported as “A (50-100)”. The CL rating entry in experiment [2] was “A (50-100)”.
Take `Cc1ccc(COCC(Cl)(Cl)Cl)c(N2C(=O)CS/C2=N\C(=O)Nc2ccc(-c3ncn(-c4ccc(S(F)(F)(F)(F)F)cc4)n3)cc2F)c1` [Compound J453]: the BAW rating result in experiment [1] was “A (50-100)”. For the same molecule, the CL rating entry in experiment [2] is recorded as “A (50-100)”.
With `CCCc1ccc(C)cc1N1C(=O)CS/C1=N\C(=O)Nc1ccc(-c2ncn(-c3ccc(C(F)(F)F)cn3)n2)cc1F` [Compound J454], in experiment [1], the BAW rating entry is listed as “A (50-100)”. Besides, the CL rating result in experiment [2] is listed as “A (50-100)”.
As to `Cc1cc(COCC(F)(F)F)c(N2C(=O)CS/C2=N\C(=O)Nc2ccc(-c3ncn(-c4ccc(OC(F)(F)F)cc4)n3)cc2F)cc1C` [Compound J455], in experiment [1], the BAW rating result is “A (50-100)”. Besides, in experiment [2], the CL rating result is listed as “A (50-100)”.
`Cc1ccc(Cc2ccccc2)c(N2C(=O)CS/C2=N\C(=O)Nc2ccc(-c3ncn(-c4ccc(OC(F)(F)F)cc4)n3)cc2C)c1` [Compound J456, (Z)-1-(3-(2-Benzyl-5-methylphenyl)-4-oxothiazolidin-2-ylidene)-3-(2-methyl-4-(1-(4-(trifluoromethoxy)phenyl)-1H-1,2,4-triazol-3-yl)phenyl)urea]: the pest or weed control at 50 µg/cm2 in experiment [1] and in experiment [2] was 50 to 100% throughout.
For `Cc1ccc(Cc2ccccc2)c(N2C(=O)CS/C2=N\C(=O)Nc2ccc(-c3ncn(-c4ccc(OC(F)(F)F)cc4)n3)cc2F)c1` [Compound J457, (Z)-1-(3-(2-Benzyl-5-methylphenyl)-4-oxothiazolidin-2-ylidene)-3-(2-fluoro-4-(1-(4-(trifluoromethoxy)phenyl)-1H-1,2,4-triazol-3-yl)phenyl)urea], the pest or weed control at 50 µg/cm2 in experiment [1] and in experiment [2] was 50 to 100% each time.
Consider `Cc1ccc(COCC(F)(F)F)c(N2C(=O)C(Cl)(Cl)S/C2=N\C(=O)Nc2ccc(-c3ncn(-c4ccc(OC(F)(F)F)cc4)n3)cc2F)c1` [Compound J458, (Z)-1-(5,5-dichloro-3-(5-methyl-2-((2,2,2-trifluoroethoxy)methyl)phenyl)-4-oxothiazolidin-2-ylidene)-3-(2-fluoro-4-(1-(4-(trifluoromethoxy)phenyl)-1H-1,2,4-triazol-3-yl)phenyl)urea], for which the pest or weed control at 50 µg/cm2 in experiment [1] and in experiment [2] was 50 to 100% each time.
`Cc1ccc(COCC(Cl)(Cl)Cl)c(N2C(=O)CS/C2=N\C(=O)Nc2ccc(-c3ncn(-c4ccc(OC(F)(F)F)cc4)n3)cc2C)c1` [Compound J459]: in experiment [1], the BAW rating entry is given as “A (50-100)”. For the same molecule, in experiment [2], the CL rating result is “A (50-100)”.
As for `Cc1cc(COCC(F)(F)F)c(N2C(=O)CS/C2=N\C(=O)Nc2ccc(-c3ncn(-c4ccc(OC(F)(F)F)cc4)n3)cc2C)cc1C` [Compound J460], in experiment [1], the BAW rating entry is reported as “A (50-100)”. The CL rating result in experiment [2] is “A (50-100)”.
Consider `COC(C)c1ccc(C)cc1N1C(=O)CS/C1=N\C(=O)Nc1ccc(-c2cn(-c3ccc(C(F)(F)F)cn3)cn2)cc1F` (centres unmarked) [Compound J461, (Z)-1-(2-Fluoro-4-(1-(5-(trifluoromethyl)pyridin-2-yl)-1H-imidazol-4-yl)phenyl)-3-(3-(2-(1-methoxyethyl)-5-methylphenyl)-4-oxothiazolidin-2-ylidene)urea], for which the pest or weed control at 50 µg/cm2 in experiment [1] and in experiment [2] was 50 to 100% in each case.
As to `COC(C)c1ccc(C)cc1N1C(=O)CS/C1=N\C(=O)Nc1ccc(-c2cn(-c3ccc(OC(F)(F)F)cc3)cn2)cc1` (centres unmarked) [Compound J463, (Z)-1-(3-(2-(1-Methoxyethyl)-5-methylphenyl)-4-oxothiazolidin-2-ylidene)-3-(4-(1-(4-(trifluoromethoxy)phenyl)-1H-imidazol-4-yl)phenyl)urea], the pest or weed control at 50 µg/cm2 in experiment [1] and in experiment [2] was 50 to 100% each time.
In the case of `Cc1ccc(OCCCC(F)(F)F)c(N2C(=O)CS/C2=N\C(=O)Nc2ccc(-n3cnc(-c4ccc(OC(F)(F)F)cc4)n3)cc2C)c1` [Compound J465, (Z)-1-(3-(5-Methyl-2-(4,4,4-trifluorobutoxy)phenyl)-4-oxothiazolidin-2-ylidene)-3-(2-methyl-4-(3-(4-(trifluoromethoxy)phenyl)-1H-1,2,4-triazol-1-yl)phenyl)urea], the pest or weed control at 50 µg/cm2 in experiment [1] and in experiment [2] was 50 to 100% in each case.
